Experimental data taken from patent US10300042B2, “Apremilast for the treatment of a liver disease or a liver function abnormality” (Celgene Corporation, priority 2014, dated 2019).

How the values were obtained:
PDE3 = PDE3 enzyme assay; format: biochemical; conditions: at 10 μM
Protocol: (§1) PDE1, 2, 3 and 5 enzyme assays were prepared as described by Hidaka and Asano. Biochem. Biophys. Acta., 1976, 429:485; see also Nicholsen et al., Trends Pharmaco. Sci., 1991, 12:19. The PDE6 enzyme assay was prepared according to Baehr et al., J. Biol. Chem., 1979, 254:11669 and Gillespie et al., Mol. Pharm., 1989, 36: 773. The PDE7 enzyme assay was prepared according to Bloom and Beavo. Proc. Natl. Acad. Sci. USA, 1996, 93:14188-92.

PDE5 = PDE5 (Homo sapiens, UniProt O76074); test: PDE5 enzyme assay; format: biochemical
Protocol: as §1

[1] = tested on: Aspartate Aminotransferase; test: AST levels in PALACE 1, 2, and 3 clinical studies; format: in vivo, human
Description: Apremilast was studied in Phase 3 trials in both psoriatic arthritis and psoriasis patient populations and a Phase 2 trial in rheumatoid arthritis patients on background methotrexate. […] The improvement in mild baseline liver function test abnormalities has been observed with apremilast daily use without any prescribed changes in physical activity, social or dietary habits. The majority of the patient populations in both the psoriatic arthritis and psoriasis studies were overweight with the mean BMI for subjects greater than or equal to 30, more than half were consuming alcoholic beverages regularly, approximately 60% were taking methotrexate at an average dose of […], and 70% were using non-steroidal anti-inflammatory drugs (NSAIDs). […] During the course of the study, there was observed a higher proportion of subjects in the apremilast treatment groups (both 20 mg BID and 30 mg BID) with normal LFTs (i.e. normal levels of ALT and AST) at subsequent placebo-controlled study visits at week 4, week 16, and week 24 (See Tables 1 to 10 from PALACE 1, 2, and 3 studies).

Alanine Aminotransferase [2] = test: ALT levels in PSOR-008 and PSOR-009 (plaque psoriasis); format: in vivo, human; conditions: for ALT High, % of patients / ALT Low, % of patients / ALT Normal, % of patients: Week 16, 30 mg BID
Protocol: Apremilast was studied in Phase 3 trials in patients with moderate to severe plaque psoriasis. […] The improvement in mild baseline liver function test abnormalities has been observed with apremilast daily use without any prescribed changes in physical activity, social or dietary habits. During the course of the study, there was observed a higher proportion of subjects in the apremilast treatment group (30 mg BID) with normal LFTs (i.e. normal levels of ALT and AST) at subsequent placebo-controlled study visits at week 16. See Tables 11 to 16 from PSOR-008 and PSOR-009 studies.

Alanine Aminotransferase [3] = test: ALT levels in RA-002 (rheumatoid arthritis); format: in vivo, human; conditions: for ALT High to Normal, percent of patients / ALT Net Benefit / ALT Normal to High, percent of patients: end of treatment (week 16); for ALT High, % of patients / ALT Low, % of patients / ALT Normal, % of patients: Week 16
Protocol: The improvement in mild baseline liver function test abnormalities has been observed with apremilast daily use without any prescribed changes in physical activity, social or dietary habits. During the course of the study, there was observed a higher proportion of subjects in the 30 mg BID apremilast treatment group with normal LFTs at subsequent placebo-controlled study visits at week 16. See Tables 17 to 24 from RA-002 studies.

[4] = tested on: patients with moderate to severe plaque psoriasis; test: Pruritus in ESTEEM 1; format: in vivo, human; conditions: Week 16, 30 mg BID
Protocol: (§2) Patients were randomized with Apremilast in an amount of 30 mg twice per day or placebo for the first 16 weeks, and from Weeks 16 to 32, all patients received Apremilast in an amount of 30 mg twice per day.

[5] = tested on: patients with moderate to severe plaque psoriasis; test: Pruritus in ESTEEM 2; format: in vivo, human; conditions: Week 16, 30 mg BID
Protocol: as §2

[6] = Baseline High, Week 24, 20 mg BID
[7] = Baseline High, Week 24, 30 mg BID
[8] = Baseline Normal, Week 24, 20 mg BID
[9] = Baseline Normal, Week 24, 30 mg BID
[10] = Baseline Total, Week 24, 20 mg BID
[11] = Baseline Total, Week 24, 30 mg BID
[12] = 30 BID, end of treatment (week 16)

SMILES: CCOc1cc([C@@H](CS(C)(=O)=O)N2C(=O)c3cccc(NC(C)=O)c3C2=O)ccc1OC [Apremilast, (+)-2-[1-(3-ethoxy-4-methoxyphenyl)-2-methylsulfonylethyl]-4-acetylaminoisoindoline-1,3-dione]
- % inhibition PDE3 (PDE3): 20%
- inhibition at 10 µM (PDE5): 3%
- AST High to Normal, percent of patients ([1]; 20 BID, end of treatment): 60.9%
- AST Net Benefit ([1]; 20 BID, end of treatment): 32.6%
- AST Normal to High, percent of patients ([1]; 20 BID, end of treatment): 5.0%
- AST High to Normal, Difference between Placebo and APR 30 BID ([1]; 30 BID, end of treatment): 13.3%
- AST High to Normal, percent of patients ([1]; 30 BID, end of treatment): 73.3%
- AST Net Benefit ([1]; 30 BID, end of treatment): 48.9%
- AST Net Benefit, Difference between Placebo and APR 30 BID ([1]; 30 BID, end of treatment): 23.9%
- AST Normal to High, Difference between Placebo and APR 30 BID ([1]; 30 BID, end of treatment): −6.4%
- AST Normal to High, percent of patients ([1]; 30 BID, end of treatment): 3.8%
- AST High, % of patients [1, 6]: 39.1%
- AST Low, % of patients [1, 6]: 0.0%
- AST Normal, % of patients [1, 6]: 60.9%
- AST High, % of patients [1, 7]: 26.7%
- AST Low, % of patients [1, 7]: 0.0%
- AST Normal, % of patients [1, 7]: 73.3%
- AST High, % of patients [1, 8]: 5.0%
- AST Low, % of patients [1, 8]: 0.0%
- AST Normal, % of patients [1, 8]: 95.0%
- AST High, % of patients [1, 9]: 3.8%
- AST Low, % of patients [1, 9]: 0.0%
- AST Normal, % of patients [1, 9]: 96.2%
- AST High, % of patients [1, 10]: 6.8%
- AST Low, % of patients [1, 10]: 0.0%
- AST Normal, % of patients [1, 10]: 93.2%
- AST High, % of patients [1, 11]: 5.4%
- AST Low, % of patients [1, 11]: 0.0%
- AST Normal, % of patients [1, 11]: 94.6%
- Baseline High AST: High % ([1]; Week 4, 20 mg BID): 38.6%
- Baseline High AST: Normal % ([1]; Week 4, 20 mg BID): 61.4%
- Baseline High AST: Normal % difference from Placebo ([1]; Week 4, 20 mg BID): 9%
- Baseline High AST: High % ([1]; Week 4, 30 mg BID): 42.2%
- Baseline High AST: Normal % ([1]; Week 4, 30 mg BID): 57.8%
- Baseline High AST: Normal % difference from Placebo ([1]; Week 4, 30 mg BID): 5.4%
- Baseline High AST: High % ([1]; Week 16, 20 mg BID): 38.5%
- Baseline High AST: Normal % ([1]; Week 16, 20 mg BID): 61.5%
- Baseline High AST: Normal % difference from Placebo ([1]; Week 16, 20 mg BID): −4.3%
- decrease in the number of patients with normal levels of AST compared to the placebo group ([1]; Week 16, 20 mg BID, stated as a decrease): 4.3%
- Baseline High AST: High % ([1]; Week 16, 30 mg BID): 25.0%
- Baseline High AST: Normal % ([1]; Week 16, 30 mg BID): 75.0%
- Baseline High AST: Normal % difference from Placebo ([1]; Week 16, 30 mg BID): 9.2%
- Baseline High AST: High % ([1]; Week 24, 20 mg BID): 44.4%
- Baseline High AST: Normal % ([1]; Week 24, 20 mg BID): 55.6%
- Baseline High AST: Normal % difference from Placebo ([1]; Week 24, 20 mg BID): 5.6%
- Baseline High AST: High % ([1]; Week 24, 30 mg BID): 24.2%
- Baseline High AST: Normal % ([1]; Week 24, 30 mg BID): 75.8%
- Baseline High AST: Normal % difference from Placebo ([1]; Week 24, 30 mg BID): 25.8%
- ALT High to Normal, percent of patients (Alanine Aminotransferase [2]; [12]): 57.1%
- ALT Net Benefit (Alanine Aminotransferase [2]; [12]): 53.7%
- ALT Normal to High, percent of patients (Alanine Aminotransferase [2]; [12]): 3.7%
- ALT High to Normal, Difference (APR 30 BID vs Placebo) (Alanine Aminotransferase [2]; 30 BID, week 16): 3.1%
- ALT Net Benefit, Difference (APR 30 BID vs Placebo) (Alanine Aminotransferase [2]; 30 BID, week 16): 17.9%
- ALT Normal to High, Difference (APR 30 BID vs Placebo) (Alanine Aminotransferase [2]; 30 BID, week 16): −2.1%
- ALT High to Normal, Difference (APR 30 BID vs Placebo) (Alanine Aminotransferase [2]; 30 BID, week 16, listed as APR): 3.1%
- ALT High, % of patients (Alanine Aminotransferase [2]; Baseline High): 42.9%
- ALT Low, % of patients (Alanine Aminotransferase [2]; Baseline High): 0.0%
- ALT Normal, % of patients (Alanine Aminotransferase [2]; Baseline High): 57.1%
- ALT High, % of patients (Alanine Aminotransferase [2]; Baseline Normal): 3.7%
- ALT Low, % of patients (Alanine Aminotransferase [2]; Baseline Normal): 0.0%
- ALT Normal, % of patients (Alanine Aminotransferase [2]; Baseline Normal): 96.3%
- ALT High, % of patients (Alanine Aminotransferase [2]; Baseline Total): 7.8%
- ALT Low, % of patients (Alanine Aminotransferase [2]; Baseline Total): 0.0%
- ALT Normal, % of patients (Alanine Aminotransferase [2]; Baseline Total): 92.2%
- ALT High to Normal, percent of patients (Alanine Aminotransferase [3]; 20 BID): 25.0%
- ALT Net Benefit (Alanine Aminotransferase [3]; 20 BID): 14.3%
- ALT Normal to High, percent of patients (Alanine Aminotransferase [3]; 20 BID): 4.5%
- ALT High to Normal, percent of patients (Alanine Aminotransferase [3]; 30 BID): 66.7%
- ALT Net Benefit (Alanine Aminotransferase [3]; 30 BID): 40.0%
- ALT Normal to High, percent of patients (Alanine Aminotransferase [3]; 30 BID): 3.1%
- ALT High to Normal, Difference between Placebo and APR 30 BID (Alanine Aminotransferase [3]; 30 BID, week 16): 0%
- ALT Net Benefit, Difference between Placebo and APR 30 BID (Alanine Aminotransferase [3]; 30 BID, week 16): −26.7%
- ALT Normal to High, Difference between Placebo and APR 30 BID (Alanine Aminotransferase [3]; 30 BID, week 16): 3.1%
- ALT High to Normal, Difference between Placebo and APR 30 BID (Alanine Aminotransferase [3]; 30 BID, week 16, listed as APR): 0.0%
- ALT High, % of patients (Alanine Aminotransferase [3]; Baseline High, 20 mg BID): 75.0%
- ALT Low, % of patients (Alanine Aminotransferase [3]; Baseline High, 20 mg BID): 0.0%
- ALT Normal, % of patients (Alanine Aminotransferase [3]; Baseline High, 20 mg BID): 25.0%
- ALT High, % of patients (Alanine Aminotransferase [3]; Baseline High, 30 mg BID): 33.3%
- ALT Low, % of patients (Alanine Aminotransferase [3]; Baseline High, 30 mg BID): 0.0%
- ALT Normal, % of patients (Alanine Aminotransferase [3]; Baseline High, 30 mg BID): 66.7%
- ALT High, % of patients (Alanine Aminotransferase [3]; Baseline Normal, 20 mg BID): 4.5%
- ALT Low, % of patients (Alanine Aminotransferase [3]; Baseline Normal, 20 mg BID): 0.0%
- ALT Normal, % of patients (Alanine Aminotransferase [3]; Baseline Normal, 20 mg BID): 95.5%
- ALT High, % of patients (Alanine Aminotransferase [3]; Baseline Normal, 30 mg BID): 3.1%
- ALT Low, % of patients (Alanine Aminotransferase [3]; Baseline Normal, 30 mg BID): 0.0%
- ALT Normal, % of patients (Alanine Aminotransferase [3]; Baseline Normal, 30 mg BID): 96.9%
- ALT High, % of patients (Alanine Aminotransferase [3]; Baseline Total, 20 mg BID): 8.6%
- ALT Low, % of patients (Alanine Aminotransferase [3]; Baseline Total, 20 mg BID): 0.0%
- ALT Normal, % of patients (Alanine Aminotransferase [3]; Baseline Total, 20 mg BID): 91.4%
- ALT High, % of patients (Alanine Aminotransferase [3]; Baseline Total, 30 mg BID): 4.5%
- ALT Low, % of patients (Alanine Aminotransferase [3]; Baseline Total, 30 mg BID): 0.0%
- ALT Normal, % of patients (Alanine Aminotransferase [3]; Baseline Total, 30 mg BID): 95.5%
- Change in Pruritus Visual Analog Scale (mm ± SD) [4]: −31.5 (±32.43) mm
- Change in Pruritus Visual Analog Scale (mm ± SD) [5]: −33.5 (±35.46) mm
